Reference: patent US20140107116A1, “BENZOTHIAZOLE DERIVATIVES FOR THE TREATMENT OF DIABETES” (MERCK SERONO SA, priority 2003, published 2014)

Tested on: db/db mice
Experiment: Oral postprandial glycemia in db/db mice (experimental model of type II diabetes)
Assay type: in vivo
Settings: 100 mg/kg p.o., db/db mice fasted 20 h then fed, compared to vehicle group; for decrease in blood glucose level: 4 hrs after administration; for decrease in insulin level: serum insulin (ELISA) 4 hrs after administration
Description: In Vivo Assay: Experimental Model of Type II Diabetes (Oral Postprandial Glycemia in db/db Mice)
The following assay aims at determining the anti-diabetic effect of the test compounds of formula (I) in a model of postprandial glycemia in db/db mice, in vivo.
The assay was performed as follows:
A total of 18 db/db mice (about 8-9 weeks; obtained from IFFACREDO, l'Arbreste, France) were fasted during 20 hours.
3 groups, each consisting of 6 animals were formed: • Group 1: The animals were administered (per os) a dose of […] of vehicle. • Group 2: The animals were administered (per os) a dose of 50 mg/kg of the test compound according to formula (I). • Group 3: The animals were administered (per os) a dose of 100 mg/kg of the test compound according to formula (I).
After oral administration of the compounds of formula (I) solubilized or suspended in CarboxyMethylCellulose (0.5%), Tween 20 (0.25%) and water as vehicle, the animals had access to commercial food (D04, UAR, Villemoisson/Orge, France) ad libitum. The diabetic state of the mice was verified by determining the blood glucose level before drug administration. Blood glucose and serum insulin levels were then determined 4 hrs after drug administration.
The determination of the blood glucose level was performed using a glucometer (Precision Q.I.D., Medisense, Abbot, ref. 212.62.31).
The determination of the Insulin level was performed using an ELISA kit (Crystal CHEM, Ref. INSK R020).
Changes in blood glucose and serum insulin of drug treated mice were expressed as a percentage of control (group 1: vehicle treated mice).

| Structure (SMILES) | decrease in blood glucose level [%] | decrease in insulin level [%] |
| --- | --- | --- |
| N#CC(c1ccnc(NCCc2cccnc2)n1)c1nc2ccccc2s1 (stereo not shown) [1,3-benzothiazol-2-yl(2-{[2-(3-pyridinyl)ethyl]amino}-4-pyrimidinyl)acetonitrile] | 38 | 64 |
| N#CC(c1ccnc(OCc2ccc(CN3CCOCC3)cc2)n1)c1nc2ccccc2s1 (stereo not shown) [1,3-benzothiazol-2-yl(2-{[4-(morpholin-4-ylmethyl)benzyl]oxy}-pyrimidin-4-yl)acetonitrile] | 22 | 36 |
